Data reported in US6399629B1, “Efflux pump inhibitors” (priority 1998, dated 2002).
Where a name gives a salt, the structure may show the parent alone.

Each compound was assayed on Pseudomonas aeruginosa PAM1001 (assay: microbe, parasite or virus in culture). Settings: Pseudomonas aeruginosa, PAM1001, read-out: Inhibition (%) of growth of P. aeruginosa PAM1001.
Type: cell-based
Procedure: For compounds labeled with the prefix ‘D’, potentiation is measured by inhibition of growth of Pseudomonas aeruginosa PAM1001 at varying concentrations of efflux pump inhibitors (EPIs) in the presence of levofloxacin (0.25 microg/mL). Bacteria are grown in Mueller Hinton Broth (MHB, Difco) with an initial inoculum of 1×10^6 CFU/mL. Kinetics of bacterial growth is monitored, during 18 h of incubation at 37° C., by measurement of the culture absorbance at 650 nm using a 96-well plate spectrophotometer (SpectraMax, Molecular Devices). The inhibitory effect of EPIs is expressed as a percentage of growth inhibition compared to a control bacterial culture grown in the presence of 0.25 microg/mL levofloxacin but without EPIs.

Row | Structure (SMILES) | inhibition at 2.5 µg/mL [%] | inhibition at 5 µg/mL [%] | inhibition at 10 µg/mL [%] | inhibition at 20 µg/mL [%] | inhibition at 40 µg/mL [%]
1 | NCC(=O)N[C@H]1CN[C@H](C(=O)N[C@H](CCc2ccccc2)C(=O)Nc2cnc3ccccc3c2)C1 [Compound D201, trans-4-Glycylamino-L-Prolyl-D-Homophenylalanine 3-Quinolylamide Trihydrochloride] | 17 | 9 | 99 | 100 | 100
2 | N[C@H]1CN[C@H](C(=O)N[C@H](CCc2ccccc2)C(=O)Nc2cnc3ccccc3c2)C1 [Compound D202, trans-4-Amino-L-Prolyl-D-Homophenylalanine 3-Quinolylamide Trihydrochloride] | – | – | – | 21 | 86
3 | NCC(=O)N[C@H]1CN[C@H](C(=O)N[C@H](CCc2ccccc2)C(=O)Nc2ccc3c(c2)CCC3)C1 [Compound D203, trans-4-Glycylamino-L-Prolyl-D-Homophenylalanine 5-Indanylamide Dihydrochloride] | 18 | 17 | 100 | 100 | 100
4 | Cc1ccc(NC(=O)[C@@H](CCc2ccccc2)NC(=O)[C@@H]2C[C@@H](NC(=O)CN)CN2)cc1C [Compound D204, trans-4-Glycylamino-L-Prolyl-D-Homophenylalanine 3,4-Dimethylphenylamide Dihydrochloride] | 18 | 16 | 3 | 100 | 100
5 | Cc1cc(C)cc(NC(=O)[C@@H](CCc2ccccc2)NC(=O)[C@@H]2C[C@@H](NC(=O)CN)CN2)c1 [Compound D205, trans-4-Glycylamino-L-Prolyl-D-Homophenylalanine 3,5-Dimethylphenylamide Dihydrochloride] | 16 | 13 | 100 | 100 | 100
6 | Cc1cc(NC(=O)[C@@H](CCc2ccccc2)NC(=O)[C@@H]2C[C@@H](NC(=O)CN)CN2)ccc1Cl [Compound D206, trans-4-Glycylamino-L-Prolyl-D-Homophenylalanine 4-Chloro-3-Methylphenylamide Dihydrochloride] | 16 | 10 | 100 | 99 | 100
7 | NCC(=O)N[C@H]1CN[C@H](C(=O)NCC(=O)Nc2ccc(Cc3ccccc3)cc2)C1 [Compound D210, trans-4-Glycylamino-L-Prolylglycine 4-Benzylphenyl-amide Dihydrochloride] | 14 | 16 | 12 | 99 | 100
8 | NCC(=O)N[C@H]1CN[C@H](C(=O)Nc2ccc(Oc3ccccc3)cc2)C1 [Compound D301, trans-4Glycylamino-L-Proline 4-Phenoxyphenylamide Dihydrochloride] | 17 | 14 | 81 | 99 | 99
9 | Cc1ccc(Oc2ccc(NC(=O)[C@@H]3C[C@@H](NC(=O)CN)CN3)cc2)cc1 [Compound D302, trans-4-Glycylamino-L-Proline 4-(4′-Methylphenoxy)-phenylamide Dihydrochloride] | 22 | 17 | 97 | 100 | 100
10 | NCC(=O)N[C@H]1CN[C@H](C(=O)Nc2ccc(Oc3ccc(Cl)cc3)cc2)C1 [Compound D303, trans-4-Glycylamino-L-Proline 4-(4′-Chlorophenoxy)-phenylamide Dihydrochloride] | 18 | 91 | 100 | 100 | 99
11 | NCC(=O)N[C@H]1CN[C@H](C(=O)Nc2ccc(Nc3ccccc3)cc2)C1 [Compound D304, trans-4-Glycylamino-L-Proline 4-Phenylamino-phenylamide Dihydrochloride] | 17 | 15 | 10 | -11 | 100
12 | NCC(=O)N[C@H]1CN[C@H](C(=O)Nc2ccc(Cc3ccccc3)cc2)C1 [Compound D308, trans-4-Glycylamino-L-Proline 4-Benzylphenylamide Dihydrochloride] | 16 | 14 | 98 | 100 | 100
13 | CC(C)(C)c1ccc(NC(=O)[C@@H]2C[C@@H](NC(=O)CN)CN2)cc1 [Compound D313, trans-4-Glycylamino-L-Proline 4-tert-Butylphenyl-amide Dihydrochloride] | 17 | 17 | 96 | 99 | 99
14 | NCC(=O)N[C@H]1CN[C@H](C(=O)Nc2ccc(OCc3ccccc3)cc2)C1 [Compound D317, trans-4-Glycylamino-L-Proline 4-Benzyloxyphenyl-amide Dihydrochloride] | 20 | 18 | -1 | 99 | 99
15 | NCC(=O)N[C@H]1CN[C@H](C(=O)Nc2cccc(OCc3ccccc3)c2)C1 [Compound D318, trans-4-Glycylamino-L-Proline 3-Benzyloxyphenyl-amide Dihydrochloride] | 17 | 16 | 19 | 99 | 99
16 | NCC(=O)N[C@H]1CN[C@H](C(=O)Nc2ccc(CSc3ccccc3)cc2)C1 [Compound D319, trans-4-Glycylamino-L-Proline 4-(Phenylthiomethyl)-phenylamide Dihydrochloride] | 19 | 18 | 99 | 100 | 100
17 | NCC(=O)N[C@H]1CN[C@H](C(=O)Nc2ccc(SCc3ccccc3)cc2)C1 [Compound D320, trans-4-Glycylamino-L-Proline 4-Benzylthiophenyl-amide Dihydrochloride] | 23 | 21 | 97 | 100 | 100
18 | NC[C@H](O)C(=O)N[C@H]1CN[C@H](C(=O)Nc2ccc(Oc3ccccc3)cc2)C1 [Compound D321, trans-4-((S)-3-Amino-2-Hydroxypropionylamino)-L-Proline 4-Phenoxyphenylamide Dihydrochloride] | 15 | 14 | 84 | 100 | 100
19 | NCCS(=O)(=O)N[C@H]1CN[C@H](C(=O)Nc2ccc(Oc3ccccc3)cc2)C1 [Compound D322, trans-4-(2-Aminoethylsulfonylamino)-L-Proline 4-Phenoxyphenylamide Dihydrochloride] | 19 | 19 | 17 | 99 | 100
